{"source": "patent US20240368120A1", "about": "(Terns Pharmaceuticals, Inc., priority 2023, published 2024)", "target": "T1, human GLP-1R receptor (Homo sapiens, UniProt P43220)", "T1 construct": "expressed in transfected cells", "T1 sequence (P43220 24-463)": "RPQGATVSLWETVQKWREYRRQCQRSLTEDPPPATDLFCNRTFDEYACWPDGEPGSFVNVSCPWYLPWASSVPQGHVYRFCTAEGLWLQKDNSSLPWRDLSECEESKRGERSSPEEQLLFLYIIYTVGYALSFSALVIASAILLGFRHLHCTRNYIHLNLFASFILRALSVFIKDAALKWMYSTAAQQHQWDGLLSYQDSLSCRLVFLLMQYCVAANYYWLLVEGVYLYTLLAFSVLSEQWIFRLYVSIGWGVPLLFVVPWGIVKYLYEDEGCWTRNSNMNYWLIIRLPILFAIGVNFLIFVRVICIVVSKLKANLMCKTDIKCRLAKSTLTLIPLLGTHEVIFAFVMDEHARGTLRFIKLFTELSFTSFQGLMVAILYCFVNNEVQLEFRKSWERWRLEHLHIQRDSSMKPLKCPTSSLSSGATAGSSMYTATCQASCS", "assay": "GLP-1R low expression cell assay (cAMP TR-FRET, CHO-K1_hGLP-1Rlow_clone10 cells)", "format": "cell-based", "settings": "for EC50: cAMP TR-FRET, 30 min at 25° C.; for Emax: maximum activation relative to control GLP-1 peptide agonist", "in_short": "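Readout is cAMP TR-FRET after 30 min compound stimulation at 25 °C of a low-GLP-1R-expressing CHO-K1 clone (1,000 cells/well), with 10-point 3-fold serial dilutions. Percent activation versus a control GLP-1 peptide, from duplicates, was Hill-fitted to give EC50.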", "data": [{"molecule": "Cn1c(CN2CCC(c3cccc(OCc4ccc(C#N)cc4F)n3)CC2)nc2c(OC(C)(C)C)cc(C(=O)O)cc21", "note": "[Compound 135, 4-(tert-Butoxy)-2-((4-(6-((4-cyano-2-fluorobenzyl)oxy)pyridin-2-yl)piperidin-1-yl)methyl)-1-methyl-1H-benzo[d]imidazole-6-carboxylic acid]", "values": [{"measurement": "EC50", "result": "100 to 1000", "unit": "nM"}, {"measurement": "Emax", "result": "> 85", "unit": "%"}]}, {"molecule": "COc1c(C(=O)O)ccc2c1nc(CN1CCC(c3cccc(OCc4ccc(Cl)cc4F)n3)CC1)n2C", "note": "[Compound 187, 2-((4-(6-((4-Chloro-2-fluorobenzyl)oxy)pyridin-2-yl)piperidin-1-yl)methyl)-4-methoxy-1-methyl-1H-benzo[d]imidazole-5-carboxylic acid]", "values": [{"measurement": "EC50", "result": "> 1000", "unit": "nM"}, {"measurement": "Emax", "result": "< 25", "unit": "%"}]}, {"molecule": "COc1cc(C(=O)O)cc2c1nc(CN1CCC(c3cccc(OCc4cc(F)c(C#N)cc4F)n3)CC1)n2C", "note": "[Compound 327, 2-((4-(6-((4-Cyano-2,5-difluorobenzyl)oxy)pyridin-2-yl)piperidin-1-yl)methyl)-4-methoxy-1-methyl-1H-benzo[d]imidazole-6-carboxylic acid]", "values": [{"measurement": "EC50", "result": "< 10", "unit": "nM"}, {"measurement": "Emax", "result": "> 85", "unit": "%"}]}, {"molecule": "Cn1c(CN2CCC(c3cccc(OCc4ccc(C5CCCO5)cc4F)n3)CC2)nc2c(OC(F)F)cc(C(=O)O)cc21", "note": "(stereo not drawn) [Compound 177, 4-(Difluoromethoxy)-2-((4-(6-((2-fluoro-4-(tetrahydrofuran-2-yl)benzyl)oxy)pyridin-2-yl)piperidin-1-yl)methyl)-1-methyl-1H-benzo[d]imidazole-6-carboxylic acid]", "values": [{"measurement": "EC50", "result": "> 1000", "unit": "nM"}, {"measurement": "Emax", "result": "50 to 85", "unit": "%"}]}, {"molecule": "Cn1c(CN2CCC(c3cccc4c3O[C@@H](c3ccc(C#N)cc3F)CO4)CC2)nc2c(OC(F)F)cc(C(=O)O)cc21", "note": "[Compound 123, (S)-2-((4-(3-(4-Cyano-2-fluorophenyl)-2,3-dihydrobenzo[b][1,4]dioxin-5-yl)piperidin-1-yl)methyl)-4-(difluoromethoxy)-1-methyl-1H-benzo[d]imidazole-6-carboxylic acid]", "values": [{"measurement": "EC50", "result": "10 to 100", "unit": "nM"}, {"measurement": "Emax", "result": "> 85", "unit": "%"}]}, {"molecule": "Cn1c(CN2CCC(c3cccc(OCc4ccc(Cl)cn4)n3)CC2)nc2c(OC(F)F)cc(C(=O)O)cc21", "note": "[Compound 247, 2-((4-(6-((5-Chloropyridin-2-yl)methoxy)pyridin-2-yl)piperidin-1-yl)methyl)-4-(difluoromethoxy)-1-methyl-1H-benzo[d]imidazole-6-carboxylic acid]", "values": [{"measurement": "EC50", "result": "100 to 1000", "unit": "nM"}, {"measurement": "Emax", "result": "> 85", "unit": "%"}]}, {"molecule": "CN(c1nc2c(OC(F)F)cc(C(=O)O)cc2n1C[C@@H]1CCO1)[C@H]1CC[C@H](c2cccc(OCc3ccc(C#N)cc3F)n2)CC1", "note": "[Compound 132, 2-(((1r,4S)-4-(6-((4-cyano-2-fluorobenzyl)oxy)pyridin-2-yl)cyclohexyl) (methyl)amino)-4-(difluoromethoxy)-1-(((S)-oxetan-2-yl)methyl)-1H-benzo[d]imidazole-6-carboxylic acid]", "values": [{"measurement": "EC50", "result": "< 10", "unit": "nM"}, {"measurement": "Emax", "result": "> 85", "unit": "%"}]}, {"molecule": "COc1cc(C(=O)O)cc2c1nc(CN1CCN(c3cccc(OCc4ccc(Cl)cc4F)n3)CC1)n2C", "note": "[Compound 383, 2-((4-(6-((4-Chloro-2-fluorobenzyl)oxy)pyridin-2-yl)piperazin-1-yl)methyl)-4-methoxy-1-methyl-1H-benzo[d]imidazole-6-carboxylic acid]", "values": [{"measurement": "EC50", "result": "10 to 100", "unit": "nM"}, {"measurement": "Emax", "result": "> 85", "unit": "%"}]}, {"molecule": "[2H]C([2H])(C)Oc1cc(C(=O)O)cc2c1nc(CN1CCC(c3cccc(OCc4ccc(Cl)cc4F)c3)CC1)n2C", "note": "[Compound 284, 2-((4-(3-((4-Chloro-2-fluorobenzyl)oxy)phenyl)piperidin-1-yl)methyl)-4-(ethoxy-1,1-d2)-1-methyl-1H-benzo[d]imidazole-6-carboxylic acid]", "values": [{"measurement": "EC50", "result": "10 to 100", "unit": "nM"}, {"measurement": "Emax", "result": "> 85", "unit": "%"}]}, {"molecule": "Cn1c(CN2CCC(c3cccc(OCc4ccc(C#N)cc4F)n3)CC2)nc2c(O)cc(C(=O)O)cc21", "note": "[Compound 114, 2-((4-(6-((4-Cyano-2-fluorobenzyl)oxy)pyridin-2-yl)piperidin-1-yl)methyl)-4-hydroxy-1-methyl-1H-benzo[d]imidazole-6-carboxylic acid]", "values": [{"measurement": "EC50", "result": "< 10", "unit": "nM"}, {"measurement": "Emax", "result": "> 85", "unit": "%"}]}, {"molecule": "Cn1c(CN2CCC(c3cccc(CCc4ccc(Cl)cc4)n3)CC2)nc2c(OC(F)F)cc(C(=O)O)cc21", "note": "[Compound 219, 2-((4-(6-(4-chlorophenethyl)pyridin-2-yl)piperidin-1-yl)methyl)-4-(difluoromethoxy)-1-methyl-1H-benzo[d]imidazole-6-carboxylic acid]", "values": [{"measurement": "EC50", "result": "> 1000", "unit": "nM"}, {"measurement": "Emax", "result": "25 to 50", "unit": "%"}]}, {"molecule": "Cn1c(CN2CCC(c3cccc(OCc4ccc(Cl)cc4F)n3)CC2)nc2c(NCCF)cc(C(=O)O)cc21", "note": "[Compound 186, 2-((4-(6-((4-Chloro-2-fluorobenzyl)oxy)pyridin-2-yl)piperidin-1-yl)methyl)-4-((2-fluoroethyl)amino)-1-methyl-1H-benzo[d]imidazole-6-carboxylic acid]", "values": [{"measurement": "EC50", "result": "100 to 1000", "unit": "nM"}, {"measurement": "Emax", "result": "> 85", "unit": "%"}]}, {"molecule": "Cn1c(CN2CCC(c3cccc(F)c3OCc3ccc(Cl)cc3F)CC2)nc2c(OC(F)F)cc(C(=O)O)cc21", "note": "[Compound 140, 2-((4-(2-((4-Chloro-2-fluorobenzyl)oxy)-3-fluorophenyl)piperidin-1-yl)methyl)-4-(difluoromethoxy)-1-methyl-1H-benzo[d]imidazole-6-carboxylic acid]", "values": [{"measurement": "EC50", "result": "10 to 100", "unit": "nM"}, {"measurement": "Emax", "result": "> 85", "unit": "%"}]}, {"molecule": "Cn1c(Cc2ccc(-c3cccc(OCc4ccc(Cl)cc4F)n3)cc2F)nc2c(OC(F)F)cc(C(=O)O)cc21", "note": "[Compound 198, 2-(4-(6-((4-Chloro-2-fluorobenzyl)oxy)pyridin-2-yl)-2-fluorobenzyl)-4-(difluoromethoxy)-1-methyl-1H-benzo[d]imidazole-6-carboxylic acid]", "values": [{"measurement": "EC50", "result": "10 to 100", "unit": "nM"}, {"measurement": "Emax", "result": "> 85", "unit": "%"}]}, {"molecule": "COCCOCCOCCOCCOCCOc1cc(C(=O)O)cc2c1nc(CN1CCC(c3cccc4c3O[C@@](C)(c3ccc(Cl)cn3)O4)CC1)n2Cc1cncs1", "note": "[Compound 4, (S)-4-((2,5,8,11,14-pentaoxahexadecan-16-yl)oxy)-2-((4-(2-(5-chloropyridin-2-yl)-2-methylbenzo[d][1,3]dioxol-4-yl)piperidin-1-yl)methyl)-1-(thiazol-5-ylmethyl)-1H-benzo[d]imidazole-6-carboxylic acid]", "values": [{"measurement": "EC50", "result": "< 10", "unit": "nM"}, {"measurement": "Emax", "result": "> 85", "unit": "%"}]}, {"molecule": "CCOc1cc(C(=O)O)cc2c1nc(CN1CCC(c3cccc4c3OC[C@@H](c3ccc(Cl)cc3F)O4)CC1)n2C", "note": "[Compound 269, (R)-2-((4-(2-(4-chloro-2-fluorophenyl)-2,3-dihydrobenzo[b][1,4]dioxin-5-yl)piperidin-1-yl)methyl)-4-ethoxy-1-methyl-1H-benzo[d]imidazole-6-carboxylic acid]", "values": [{"measurement": "EC50", "result": "100 to 1000", "unit": "nM"}, {"measurement": "Emax", "result": "> 85", "unit": "%"}]}, {"molecule": "COCCOCCOCCOCCOCCOc1cc(C(=O)O)cc2c1nc(CN1CCC(c3cccc4c3O[C@](C)(c3ccc(Cl)cn3)O4)CC1)n2Cc1cncs1", "note": "[Compound 5, (R)-4-((2,5,8,11,14-pentaoxahexadecan-16-yl)oxy)-2-((4-(2-(5-chloropyridin-2-yl)-2-methylbenzo[d][1,3]dioxol-4-yl)piperidin-1-yl)methyl)-1-(thiazol-5-ylmethyl)-1H-benzo[d]imidazole-6-carboxylic acid]", "values": [{"measurement": "EC50", "result": "> 1000", "unit": "nM"}, {"measurement": "Emax", "result": "< 25", "unit": "%"}]}, {"molecule": "Cn1c(CN2CCC(c3cccc(OCc4ccc(C(F)(F)F)cc4)n3)CC2)nc2c(OC(F)F)cc(C(=O)O)cc21", "note": "[Compound 203, 4-(difluoromethoxy)-1-methyl-2-((4-(6-((4-(trifluoromethyl)benzyl)oxy)pyridin-2-yl)piperidin-1-yl)methyl)-1H-benzo[d]imidazole-6-carboxylic acid]", "values": [{"measurement": "EC50", "result": "10 to 100", "unit": "nM"}, {"measurement": "Emax", "result": "> 85", "unit": "%"}]}, {"molecule": "Cn1c(CN2CCC(c3cccc(F)c3OCc3ccc(C#N)cc3F)CC2)nc2c(OC(F)F)cc(C(=O)O)cc21", "note": "[Compound 182, 2-((4-(2-((4-Cyano-2-fluorobenzyl)oxy)-3-fluorophenyl)piperidin-1-yl)methyl)-4-(difluoromethoxy)-1-methyl-1H-benzo[d]imidazole-6-carboxylic acid]", "values": [{"measurement": "EC50", "result": "100 to 1000", "unit": "nM"}, {"measurement": "Emax", "result": "> 85", "unit": "%"}]}, {"molecule": "N#Cc1ccc(COc2cccc(C3CCN(Cc4nc5cnc(C(=O)O)cc5n4C[C@@H]4CCO4)CC3)n2)c(F)c1", "note": "[Compound 378, (S)-2-((4-(6-((4-Cyano-2-fluorobenzyl)oxy)pyridin-2-yl)piperidin-1-yl)methyl)-1-(oxetan-2-ylmethyl)-1H-imidazo[4,5-c]pyridine-6-carboxylic acid]", "values": [{"measurement": "EC50", "result": "10 to 100", "unit": "nM"}, {"measurement": "Emax", "result": "> 85", "unit": "%"}]}, {"molecule": "Cn1c(CN2CCC(c3nccc(OCc4ccc(Cl)cc4F)n3)CC2)nc2c(OC(F)F)cc(C(=O)O)cc21", "note": "[Compound 168, 2-((4-(4-((4-Chloro-2-fluorobenzyl)oxy)pyrimidin-2-yl)piperidin-1-yl)methyl)-4-(difluoromethoxy)-1-methyl-1H-benzo[d]imidazole-6-carboxylic acid]", "values": [{"measurement": "EC50", "result": "10 to 100", "unit": "nM"}, {"measurement": "Emax", "result": "> 85", "unit": "%"}]}, {"molecule": "Cn1c(CN2CCC(c3cccc(OCc4ccc(Cl)cc4F)n3)CC2)nc2c(OC(F)F)cc(-c3nsc(=O)[nH]3)cc21", "note": "[Compound 370, 3-(2-((4-(6-((4-Chloro-2-fluorobenzyl)oxy)pyridin-2-yl)piperidin-1-yl)methyl)-4-(difluoromethoxy)-1-methyl-1H-benzo[d]imidazol-6-yl)-1,2,4-thiadiazol-5 (4H)-one]", "values": [{"measurement": "EC50", "result": "100 to 1000", "unit": "nM"}, {"measurement": "Emax", "result": "> 85", "unit": "%"}]}, {"molecule": "Cn1c(CN2CCC(c3cccc(OCc4ccc(C#N)cc4F)n3)CC2)nc2c(N3CCOCC3)cc(C(=O)O)cc21", "note": "[Compound 112, 2-((4-(6-((4-cyano-2-fluorobenzyl)oxy)pyridin-2-yl)piperidin-1-yl)methyl)-1-methyl-4-morpholino-1H-benzo[d]imidazole-6-carboxylic acid]", "values": [{"measurement": "EC50", "result": "100 to 1000", "unit": "nM"}, {"measurement": "Emax", "result": "> 85", "unit": "%"}]}, {"molecule": "COc1cc(C(=O)O)cc2c1nc([C@H](C)N1CCC(c3cccc(OCc4ccc(C#N)cc4F)n3)CC1)n2C", "note": "[Compound 102, (S)-2-(1-(4-(6-((4-Cyano-2-fluorobenzyl)oxy)pyridin-2-yl)piperidin-1-yl)ethyl)-4-methoxy-1-methyl-1H-benzo[d]imidazole-6-carboxylic acid]", "values": [{"measurement": "EC50", "result": "10 to 100", "unit": "nM"}, {"measurement": "Emax", "result": "> 85", "unit": "%"}]}]}
